Results from patent US7008922B2, “H-Y antigen” (Rijksuniversiteit te Leiden, priority 1995, dated 2006).
Where a SMILES comes first, the peptide text is derived from it.

Key:
purified HLA-B7 = purified HLA-B7 (Homo sapiens, UniProt P01889); assay: Inhibition of binding of iodinated standard peptide to purified HLA-B7; settings: iodinated endogenous B7 peptide […]
Procedure: Binding of synthetic peptides to purified HLA-B7. HPLC-purified test peptides were assayed for the ability to inhibit the binding of the iodinated endogenous B7 peptide […] (SEQ ID NO:4) to purified HLA-B7 as previously described (40). (♦), SMCY peptide […] (SEQ ID NO:1); (▪) SMCX peptide […] (SEQ ID NO:3); (Δ), […] (SEQ ID NO:5), an endogenous peptide bound to HLA-B7; (x) […] (SEQ ID NO.6), an endogenous peptide bound to HLA-A2.1 as the negative control.
The corresponding peptide derived from the sequence of the X chromosomal homolog, SMCX, has substitutions of A for S at position 3 and Q for R at position 8. […] Thus, the significant difference in the ability of the SMCY and SMCX peptides to sensitize targets for T cell recognition is almost entirely due to the fine specificity of the T cell receptor, rather than to differences in MHC binding affinities. The SMCX peptide is also present in naturally processed peptide extracts of HLA-B7, although its abundance is only 25% of that of the SMCY peptide (33). Based on all of this information, it is concluded that the peptide epitopes representing the HLA-B7 restricted H-Y antigen is derived from the protein encoded by SMCY, which is also true for the HLA-A2.1 recognized peptide, also encoded by SMCY.

[1] = tested on: HLA-A2.1 restricted H-Y specific T cell clones; assay: H-Y reconstitution assay with HLA-A2.1 restricted H-Y specific T cell clones R416 and 1R35; assay type: cell-based, human
Source text: HLA-A2 molecules were immunoaffinity purified from 10^10 DM cells. Peptides were eluted according to the methodology as described in legend to FIG. 1.
In the same manner as described above for the HLA-B7 restricted T-cell clone, the peptide recognized by two HLA-A2.1 T-cell clones was identified. In short the HLA-A2.1 restricted H-Y specific T cell clone R416 recognizes HPLC fraction 34, the HLA-A2.1 restricted H-Y specific T clone 1R35 recognizes HPLC fractions 36 and 39 (FIG. 6).

T2-B7 cells = assay: H-Y epitope reconstitution, 51Cr release assay with HLA-B7-restricted H-Y specific CTL clone 5W4; assay type: cell-based, human; settings: T2-B7 cells sensitized with synthetic peptide, effector to target ratio 10 to 1, read-out: peptide concentration at which half-maximal lysis was achieved
Source text: Reconstitution of the H-Y epitope with HPLC fractionated peptides extracted from HLA-B7 molecules. (A) HLA-B7 molecules were immunoaffinity purified from […] H-Y positive JY cells. Peptides were eluted from B7 molecules with 10% acetic acid, pH 2.2, filtered through a 10 kD cut-off filter and fractionated on a C18 reverse phase column. Buffer A was 0.1% heptafluorobutyric acid (HFBA); buffer B was 0.1% HFBA in acetonitrile. The gradient consisted of 100% buffer A (0–20 mm), 0 to 12% buffer B (20 to 25 mm), and 12 to 50% buffer B (25 to 80 mm) at a flow rate of 200 μl/min. 60 fractions of 200 μl each were collected from 20 to 80 mm. […]
H-Y epitope reconstitution with synthetic peptides. […] Purity was established on an analytical RP column and the quantity of each peptide was confirmed by comparing the area of the peak with that of a standard peptide. […]
To isolate endogenously processed H-Y peptides, HLA-B7 molecules were purified by affinity chromatography from the H-Y positive, B lymphoblastoid cell line, JY (29). […] Although a single active peak of reconstituting activity was also observed from this separation (FIG. 1B, fraction 14, 15 and 16), it still contained more than 100 distinct peptide species, as assessed by electrospray ionization tandem mass spectrometry. […]

IC50 (purified HLA-B7) | Compound | recognition by HLA-A2.1 restricted H-Y specific T cell clones [1] | EC50 (T2-B7 cells)
140 nM | CC(C)C[C@H](NC(=O)[C@H](CCC(=O)O)NC(=O)[C@H](C)NC(=O)[C@H](CCC(N)=O)NC(=O)[C@H](C)NC(=O)[C@H](CCCCN)NC(=O)[C@H](CC(=O)O)NC(=O)[C@@H](NC(=O)[C@H](C)NC(=O)[C@@H]1CCCN1C(=O)[C@@H](N)CO)C(C)C)C(=O)O [SMCX peptide, reference compound] (H-SPAVDKAQAEL-OH) | – | –
– | FIDSYICQV (listed as Homo sapiens) [SMCY-encoded peptide recognized by HLA-A2.1 restricted H-Y specific T cell clones] | recognize | –
34 nM | CC(C)C[C@H](NC(=O)[C@H](CCC(=O)O)NC(=O)[C@H](C)NC(=O)[C@H](CCCNC(=N)N)NC(=O)[C@H](C)NC(=O)[C@H](CCCCN)NC(=O)[C@H](CC(=O)O)NC(=O)[C@@H](NC(=O)[C@H](CO)NC(=O)[C@@H]1CCCN1C(=O)[C@@H](N)CO)C(C)C)C(=O)O [SMCY peptide] (H-SPSVDKARAEL-OH; N-terminus and C-terminus assumed) | – | 0.01 nM
